The text below walks through data of PubChem BioAssay AID330 (DTP/NCI, 2004).

For the assay, the system named is P388 leukemia ip, CD2F1 mice, survival T/C. The assay can be described thus: NCI In Vivo Anticancer Drug Screen. Data for tumor model P388 Leukemia (intraperitoneal) in CD2F1 (CDF1) mice. As to conditions: endpoint: median survival time, higher = longer survival. In short, it runs like this:
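Mice carrying the transplanted tumor received test compound or vehicle. Survival was recorded in each group, and the value is the treated-group measurement divided by that of the vehicle-treated control group.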

[1] abbreviates: dose: 50.0 mg/kg/injection, schedule: Q01DX009 (ip), vehicle: Klucel (hydroxypropylcellulose) (HPC).
Setting [2] is: dose: 100.0 mg/kg/injection, schedule: Q01DX009 (ip), vehicle: Klucel (hydroxypropylcellulose) (HPC).
Where [3] appears, read: dose: 200.0 mg/kg/injection, schedule: Q01DX009 (ip), vehicle: Klucel (hydroxypropylcellulose) (HPC).
Where [4] appears, read: dose: 50.0 mg/kg/injection, schedule: Q01DX005 (ip), vehicle: saline with Tween-80.
Where [5] appears, read: dose: 50.0 mg/kg/injection, schedule: Q01DX009 (ip), vehicle: saline.
Setting [6] is: dose: 100.0 mg/kg/injection, schedule: Q01DX009 (ip), vehicle: saline.
Where [7] appears, read: dose: 200.0 mg/kg/injection, schedule: Q01DX009 (ip), vehicle: saline.
Setting [8] is: dose: 50.0 mg/kg/injection, schedule: Q01DX005 (ip), vehicle: Klucel (hydroxypropylcellulose) (HPC).
The mark [9] stands for this setting: dose: 100.0 mg/kg/injection, schedule: Q01DX005 (ip), vehicle: Klucel (hydroxypropylcellulose) (HPC).
Setting [10] is: dose: 200.0 mg/kg/injection, schedule: Q01DX005 (ip), vehicle: Klucel (hydroxypropylcellulose) (HPC).
Where [11] appears, read: dose: 50.0 mg/kg/injection, schedule: Q01DX005 (ip), vehicle: saline.

“And” between values parts separate entries of the source, which are not always exact repeats. Equal values may be shown once. Inconclusive results and toxic doses are left out.

Consider `Brc1ccc(Nc2ccccn2)cc1`, for which the T/C runs as follows: (dose: 12.5 mg/kg/injection, schedule: Q01DX009 (ip), vehicle: other) 108 % of control; (dose: 25.0 mg/kg/injection, schedule: Q01DX009 (ip), vehicle: other) 97 % of control; (dose: 50.0 mg/kg/injection, schedule: Q01DX009 (ip), vehicle: other) 105 % of control; (dose: 100.0 mg/kg/injection, schedule: Q01DX009 (ip), vehicle: other) 105 % of control; (dose: 200.0 mg/kg/injection, schedule: Q01DX009 (ip), vehicle: other) 106 % of control.
In the case of `NC(=O)c1[nH]c(N=Nc2ccc(Cl)cc2)nc1N`, the T/C runs as follows: under setting [1], 92 % of control; under setting [2], 100 % of control; under setting [3], 89 % of control.
In the case of `Cc1cc(C)n(C(N)=NC(=O)c2ccc([N+](=O)[O-])cc2)n1`, the T/C under setting [1] is 99 % of control, the T/C under setting [2] is 101 % of control and the T/C under setting [3] was 106 % of control.
`O=C(Cc1ccccc1)CC(CC(=O)Cc1ccccc1)c1ccccc1`: the T/C runs as follows: under setting [4], 94 % of control; (dose: 100.0 mg/kg/injection, schedule: Q01DX005 (ip), vehicle: saline with Tween-80) 89 % of control; (dose: 200.0 mg/kg/injection, schedule: Q01DX005 (ip), vehicle: saline with Tween-80) 103 % of control.
As to `Cc1ncc2c(n1)-c1ccccc1OC2O` (stereo not given), the T/C reads like this: under setting [5], 103 % of control; under setting [6], 91 % of control; under setting [7], 100 % of control.
As to `CC(=NCCCCN=C(C)c1cc(C)cc(Br)c1O)c1cc(C)cc(Br)c1O.[Co]`, the T/C is, setting by setting: (dose: 6.25 mg/kg/injection, schedule: Q01DX005 (ip), vehicle: Klucel (hydroxypropylcellulose) (HPC)) 99 % of control and 104 % of control; (dose: 12.5 mg/kg/injection, schedule: Q01DX005 (ip), vehicle: Klucel (hydroxypropylcellulose) (HPC)) 100 % of control and 106 % of control; (dose: 25.0 mg/kg/injection, schedule: Q01DX005 (ip), vehicle: Klucel (hydroxypropylcellulose) (HPC)) 101 % of control and 109 % of control and 283 % of control; under setting [8], 98 % of control and 109 % of control and 283 % of control; under setting [9], 106 % of control and 97 % of control; under setting [10], 97 % of control.
With `O=C1OCc2cc(O)ccc21`, the T/C runs as follows: under setting [8], 102 % of control; under setting [9], 100 % of control; under setting [10], 104 % of control.
As for `CCC1(O)CC(OC2CC(N(C)C)C(OC3CC(O)C(OC4CC(O)C(O)C(C)O4)C(C)O3)C(C)O2)c2c(cc3c(c2O)C(=O)c2c(O)ccc(O)c2C3=O)C1C(=O)OC` (stereo not given), the T/C is, setting by setting: (dose: 3.13 mg/kg/injection, schedule: Q04DX003 (ip), vehicle: Klucel (hydroxypropylcellulose) (HPC)) 105 % of control; (dose: 6.25 mg/kg/injection, schedule: Q04DX003 (ip), vehicle: Klucel (hydroxypropylcellulose) (HPC)) 99 % of control; (dose: 12.5 mg/kg/injection, schedule: Q04DX003 (ip), vehicle: Klucel (hydroxypropylcellulose) (HPC)) 105 % of control; (dose: 25.0 mg/kg/injection, schedule: Q04DX003 (ip), vehicle: Klucel (hydroxypropylcellulose) (HPC)) 118 % of control.
Consider `CCCN(C)CC(C)(O)CNc1cc(OC)cc2cccnc12` (stereo not given), for which the T/C is, setting by setting: (dose: 12.5 mg/kg/injection, schedule: Q01DX005 (ip), vehicle: saline) 100 % of control; (dose: 25.0 mg/kg/injection, schedule: Q01DX005 (ip), vehicle: saline) 95 % of control; under setting [4], 106 % of control; under setting [11], 99 % of control.
For `COc1ccc2nc3cc(Cl)ccc3c(NC(C)CCCN(C)C)c2n1` (stereo not given), the T/C runs as follows: under setting [11], 102 % of control; (dose: 100.0 mg/kg/injection, schedule: Q01DX005 (ip), vehicle: saline) 110 % of control.
With `Cn1c2c(c(=O)n(C)c1=O)N1c3c(n(C)c(=O)n(C)c3=O)NN1C(c1ccccc1)=N2`, the T/C by setting is: (dose: 100.0 mg/kg/injection, schedule: Q01DX001 (ip), vehicle: saline with Tween-80) 95 % of control; (dose: 200.0 mg/kg/injection, schedule: Q01DX001 (ip), vehicle: saline with Tween-80) 88 % of control; (dose: 400.0 mg/kg/injection, schedule: Q01DX001 (ip), vehicle: saline with Tween-80) 89 % of control.
On to `NC(S(=O)(=O)O)S(=O)(=O)O`, for which the T/C was 105 % of control under setting [5], 110 % of control under setting [6] and 96 % of control under setting [7].
As to `c1ccc(OCc2cn[nH]n2)cc1`, the T/C (dose: 60.0 mg/kg/injection, schedule: Q01DX005 (ip), vehicle: saline with Tween-80) is 100 % of control; the T/C (dose: 120.0 mg/kg/injection, schedule: Q01DX005 (ip), vehicle: saline with Tween-80) was 103 % of control; the T/C (dose: 240.0 mg/kg/injection, schedule: Q01DX005 (ip), vehicle: saline with Tween-80) was 100 % of control.
In the case of `Cc1cc(C2=NCC(C)S2)ccc1OCCSCCOc1ccc(C2=NCC(C)S2)cc1C` (stereo not given), the T/C (dose: 12.5 mg/kg/injection, schedule: Q01DX009 (ip), vehicle: saline with Tween-80) is 92 % of control and the T/C (dose: 25.0 mg/kg/injection, schedule: Q01DX009 (ip), vehicle: saline with Tween-80) is 92 % of control.
For `COC(=O)C1=C(N2CCCC2)C2c3ccccc3SC12C(=O)OC` (stereo not given), the T/C was 104 % of control (dose: 60.0 mg/kg/injection, schedule: Q01DX005 (ip), vehicle: Klucel (hydroxypropylcellulose) (HPC)); 98 % of control (dose: 120.0 mg/kg/injection, schedule: Q01DX005 (ip), vehicle: Klucel (hydroxypropylcellulose) (HPC)); 94 % of control (dose: 240.0 mg/kg/injection, schedule: Q01DX005 (ip), vehicle: Klucel (hydroxypropylcellulose) (HPC)).
As for `CCOP(=S)(N/N=C(\C)c1ccc(C)s1)OCC`, the T/C reads like this: under setting [8], 104 % of control; under setting [9], 113 % of control; under setting [10], 114 % of control.
As for `COC(=O)c1cccc2c1Oc1c(cccc1C(=O)OC)S2`, the T/C runs as follows: (dose: 100.0 mg/kg/injection, schedule: Q04DX002 (ip), vehicle: Klucel (hydroxypropylcellulose) (HPC)) 109 % of control; (dose: 200.0 mg/kg/injection, schedule: Q04DX002 (ip), vehicle: Klucel (hydroxypropylcellulose) (HPC)) 115 % of control; (dose: 400.0 mg/kg/injection, schedule: Q04DX002 (ip), vehicle: Klucel (hydroxypropylcellulose) (HPC)) 117 % of control.
For `CCCCNc1c(C(=O)OCC)cnc2c1cnn2CC`, the T/C reads like this: (dose: 100.0 mg/kg/injection, schedule: Q04DX002 (ip), vehicle: saline with Tween-80) 102 % of control; (dose: 200.0 mg/kg/injection, schedule: Q04DX002 (ip), vehicle: saline with Tween-80) 102 % of control; (dose: 400.0 mg/kg/injection, schedule: Q04DX002 (ip), vehicle: saline with Tween-80) 90 % of control.
Regarding `O=C1OCCOCCOCCOCCOC(=O)c2cncc1c2`, the T/C is, setting by setting: (dose: 100.0 mg/kg/injection, schedule: Q01DX001 (ip), vehicle: Klucel (hydroxypropylcellulose) (HPC)) 101 % of control; (dose: 200.0 mg/kg/injection, schedule: Q01DX001 (ip), vehicle: Klucel (hydroxypropylcellulose) (HPC)) 108 % of control; (dose: 400.0 mg/kg/injection, schedule: Q01DX001 (ip), vehicle: Klucel (hydroxypropylcellulose) (HPC)) 105 % of control.
As for `Cc1cc(N2C(=O)CCSC2=S)ccc1Cl`, the T/C (dose: 12.5 mg/kg/injection, schedule: Q01DX009 (ip), vehicle: Klucel (hydroxypropylcellulose) (HPC)) is 120 % of control; the T/C (dose: 25.0 mg/kg/injection, schedule: Q01DX009 (ip), vehicle: Klucel (hydroxypropylcellulose) (HPC)) is 119 % of control; the T/C under setting [1] was 109 % of control and 114 % of control; the T/C (dose: 50.0 mg/kg/injection, schedule: Q01DX009 (ip), vehicle: suspension in saline) is 97 % of control; the T/C (dose: 100.0 mg/kg/injection, schedule: Q01DX009 (ip), vehicle: suspension in saline) was 90 % of control; the T/C under setting [3] was 102 % of control. Also, where the note is “dose: 200.0 mg/kg/injection, schedule: Q01DX009 (ip), vehicle: suspension in saline”, the T/C is 92 % of control.
As to `O=C(Nc1ccc(Nc2ccc(NC(=O)c3ccccc3)c3c2C(=O)c2ccccc2C3=O)c2c1C(=O)c1ccccc1C2=O)c1ccccc1`, the T/C (dose: 100.0 mg/kg/injection, schedule: Q04DX003 (ip), vehicle: saline with Tween-80) was 95 % of control; the T/C (dose: 200.0 mg/kg/injection, schedule: Q04DX003 (ip), vehicle: saline with Tween-80) was 100 % of control; the T/C (dose: 400.0 mg/kg/injection, schedule: Q04DX003 (ip), vehicle: saline with Tween-80) was 100 % of control.
Take `Cc1nc2c3c4c(sc3nc(C)n2n1)CCCC4`: the T/C under setting [8] is 105 % of control, the T/C under setting [9] was 100 % of control and the T/C under setting [10] is 98 % of control.
